Results on ten compounds are retold here after ChEMBL document CHEMBL1201862, “PubChem BioAssay data set” (2004).

Some test systems named below: MDA-N; HOP-62; UACC-62; Hs-578T; SF-295; T47D; COLO 205; LOX IMVI; 786-0; CCRF-CEM; NCI/ADR-RES; HCT-116; SN12C; OVCAR-5; NCI-H522; A549; K562; SK-MEL-2; SF-268; MDA-MB-231.
Test in all cases: DTP human tumour cell line panel, 48 h

The GI50 is the concentration giving 50% growth inhibition.

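Method: 48-hour compound exposure of cells in 96-well plates, five concentrations, linear interpolation of endpoints. GI50: concentration for 50% inhibition of growth.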 Calls of active or inactive are those of the source. Cut-off read from the data, not from the text of the source: active = GI50 up to about 1.1 µM and inactive = higher.

As to `OC(C1=C/C(=C\c2ccncc2)c2ccccc21)c1ccncc1` (stereo not given), the GI50 was 10.8 µM (inactive) in the assay on MDA-N; 10.2 µM (inactive) in the assay on HOP-62; 9.16 µM (inactive) in the assay on UACC-62; 12.2 µM (inactive) in the assay with Hs-578T; 8.65 µM (inactive) with SF-295; 4.38 µM (inactive) in the assay on T47D. The GI50 with COLO 205 was 14.5 µM (inactive); in the assay on LOX IMVI it was 12.1 µM (inactive); in the assay with 786-0 it was 12.9 µM (inactive); in the assay with CCRF-CEM, 7.41 µM (inactive); in the assay on NCI/ADR-RES, 14.6 µM (inactive); in the assay on HCT-116, 13.6 µM (inactive). The GI50 in the assay on SN12C is 13.9 µM (inactive); in the assay on OVCAR-5, 15.8 µM (inactive); in the assay on NCI-H522, 9.48 µM (inactive); in the assay with A549, 13.3 µM (inactive); with K562, 4.72 µM (inactive); with SK-MEL-2, 14.3 µM (inactive). For the same compound, the figures for the GI50 in the assay on SF-268 and with MDA-MB-231 were 18.5 µM (inactive) and 6.98 µM (inactive), respectively.
Turning to `O=C(n1c(=O)n(-c2ccc(Cl)cc2)c(=O)n1C(=O)C(Cl)(Cl)Cl)C(Cl)(Cl)Cl`, the GI50 in the assay with MDA-N, in the assay on HOP-62, with UACC-62, in the assay with Hs-578T, in the assay with SF-295 and in the assay with T47D was > 100 µM (inactive) in each case. Further, the GI50 with COLO 205 is > 100 µM (inactive); in the assay with LOX IMVI it was > 100 µM (inactive); with 786-0 it was > 100 µM (inactive); in the assay with CCRF-CEM it was > 100 µM (inactive); in the assay on NCI/ADR-RES it was 43.5 µM (inactive); in the assay on HCT-116, > 100 µM (inactive). The GI50 with SN12C was > 100 µM (inactive); in the assay on OVCAR-5 it was > 10 µM (inactive); with NCI-H522, > 100 µM (inactive); in the assay with A549, > 100 µM (inactive); with K562, 21.4 µM (inactive); in the assay with SK-MEL-2 it was > 100 µM (inactive). The figures for the GI50 with SF-268 and with MDA-MB-231 were 50 µM (inactive) and 7.67 µM (inactive), respectively.
For `COC(=O)[C@@H]1[C@@H](c2cccc(Cl)c2)[C@H](C(=O)OC)C2(C[C@@]1(C)O)NCCS2` (stereo not given in full), the GI50 with MDA-N was 86.1 µM (inactive); in the assay with HOP-62, 92.3 µM (inactive); in the assay with UACC-62 it was 73.5 µM (inactive); in the assay with Hs-578T, > 100 µM (inactive); in the assay on SF-295, > 100 µM (inactive); with T47D it was 29.6 µM (inactive). Further, the GI50 in the assay on COLO 205 is 81.1 µM (inactive); in the assay on LOX IMVI, 38.2 µM (inactive); in the assay with 786-0, 74.6 µM (inactive); in the assay on CCRF-CEM it was 0.684 µM (active); with NCI/ADR-RES it was 91.6 µM (inactive); with HCT-116, 42.5 µM (inactive). Further, the GI50 in the assay on SN12C was 47.9 µM (inactive); in the assay with OVCAR-5, > 100 µM (inactive); in the assay with NCI-H522, 24.2 µM (inactive); with A549, 55 µM (inactive); with K562, 25.6 µM (inactive); in the assay with SK-MEL-2 it was 16.6 µM (inactive). Further, the GI50 was > 100 µM (inactive) in the assay on SF-268 and 64.7 µM (inactive) in the assay on MDA-MB-231.
`CC(C)(C)OC(=O)N/N=C(/N)Cc1ccc(Cl)cc1`: the GI50 with MDA-N, in the assay on HOP-62, in the assay on UACC-62, in the assay on Hs-578T, with SF-295 and in the assay on T47D was > 100 µM (inactive) each time. In addition, the GI50 in the assay with COLO 205, in the assay on LOX IMVI, with 786-0, in the assay on CCRF-CEM, with NCI/ADR-RES and in the assay with HCT-116 was > 100 µM (inactive) throughout. For the same compound, the GI50 in the assay with SN12C was > 100 µM (inactive); in the assay with OVCAR-5, > 100 µM (inactive); in the assay on NCI-H522 it was > 100 µM (inactive); in the assay on A549, > 100 µM (inactive); in the assay on K562 it was 37.2 µM (inactive); in the assay with SK-MEL-2, > 100 µM (inactive). In addition, the GI50 with SF-268 and with MDA-MB-231 was > 100 µM (inactive) throughout.
As to `Cc1c2c(OCCN3CCCCC3)nn(C)c(=O)c2c(C)n1-c1ccccc1`, the GI50 was 35.1 µM (inactive) in the assay with MDA-N; > 100 µM (inactive) with HOP-62; 25.8 µM (inactive) in the assay with UACC-62; 54.1 µM (inactive) in the assay with Hs-578T; 21.2 µM (inactive) in the assay on SF-295; 41.2 µM (inactive) with T47D. For the same compound, the GI50 with COLO 205 was 17.7 µM (inactive); in the assay on LOX IMVI, 21.8 µM (inactive); with 786-0 it was 18.8 µM (inactive); in the assay on CCRF-CEM, 35.7 µM (inactive); with NCI/ADR-RES, 42.4 µM (inactive); in the assay on HCT-116, 38.6 µM (inactive). Further, the GI50 in the assay on SN12C is 56.1 µM (inactive); in the assay with OVCAR-5, > 100 µM (inactive); in the assay with NCI-H522, 26.7 µM (inactive); with A549, 43.6 µM (inactive); with K562, 27.7 µM (inactive); in the assay with SK-MEL-2, 17 µM (inactive). The figures for the GI50 with SF-268 and with MDA-MB-231 were 53.1 µM (inactive) and 32.4 µM (inactive), respectively.
In the case of `COc1cc([N+](=O)[O-])cc2c1NC(=O)C2(C)SC` (stereo not given), the GI50 is 51.8 µM (inactive) in the assay with MDA-N; > 100 µM (inactive) in the assay with HOP-62; 96.8 µM (inactive) with UACC-62; > 100 µM (inactive) in the assay with Hs-578T; 63.7 µM (inactive) in the assay on SF-295; 66.8 µM (inactive) in the assay on T47D. Further, the GI50 in the assay with COLO 205 is > 100 µM (inactive); in the assay on LOX IMVI, 88.1 µM (inactive); in the assay on 786-0 it was > 100 µM (inactive); in the assay on CCRF-CEM, 40.9 µM (inactive); with NCI/ADR-RES it was 94.6 µM (inactive); in the assay on HCT-116, 36.7 µM (inactive). Further, the GI50 in the assay on SN12C is 58.3 µM (inactive); in the assay with OVCAR-5, > 100 µM (inactive); in the assay with NCI-H522 it was > 100 µM (inactive); with A549, > 100 µM (inactive); with K562, 34.4 µM (inactive); in the assay with SK-MEL-2, 60.7 µM (inactive). The GI50 in the assay on SF-268 and with MDA-MB-231 was > 100 µM (inactive) each time.
Take `COc1ccc2cc(CNCCCN3CCN(CCCNCc4ccc5cc(OC)ccc5c4)CC3)ccc2c1`: the GI50 in the assay with MDA-N is 1.44 µM (inactive); with HOP-62, 1.65 µM (inactive); in the assay with UACC-62, 0.569 µM (active); with Hs-578T, 1.52 µM (inactive); with SF-295, 1.68 µM (inactive); in the assay with T47D, 1.32 µM (inactive). The GI50 in the assay on COLO 205 was 1.4 µM (inactive); with LOX IMVI it was 0.55 µM (active); with 786-0, 1.55 µM (inactive); in the assay with CCRF-CEM it was 0.45 µM (active); with NCI/ADR-RES, 2.21 µM (inactive); in the assay on HCT-116, 1.26 µM (inactive). The GI50 was 1.69 µM (inactive) in the assay on SN12C; 1.17 µM (inactive) in the assay with OVCAR-5; 2.24 µM (inactive) in the assay on NCI-H522; 1.83 µM (inactive) in the assay with A549; 0.198 µM (active) in the assay on K562; 1.93 µM (inactive) in the assay with SK-MEL-2. Further, the GI50 in the assay on SF-268 is 1.77 µM (inactive); in the assay with MDA-MB-231 it was 1.9 µM (inactive).
Take `COc1cc(-c2cc(=O)c3c(OC)c(OC)c(OC)c(OC)c3o2)c(OC)c(OC)c1OC`: the GI50 in the assay on MDA-N is 41.4 µM (inactive); in the assay on HOP-62 it was > 100 µM (inactive); in the assay with UACC-62 it was 21.2 µM (inactive); with Hs-578T, 19.8 µM (inactive); in the assay with SF-295 it was 43.8 µM (inactive); with T47D it was 16.2 µM (inactive). Moreover, the GI50 was 45.8 µM (inactive) in the assay on COLO 205; 32.1 µM (inactive) with LOX IMVI; 47.5 µM (inactive) in the assay on 786-0; 50.7 µM (inactive) in the assay with CCRF-CEM; 17.9 µM (inactive) in the assay on NCI/ADR-RES; 30.7 µM (inactive) in the assay with HCT-116. The GI50 is 35.2 µM (inactive) in the assay on SN12C; > 100 µM (inactive) in the assay with OVCAR-5; 20.7 µM (inactive) with NCI-H522; 48.1 µM (inactive) in the assay with A549; 60.3 µM (inactive) in the assay with K562; 20.5 µM (inactive) in the assay with SK-MEL-2. For the same compound, the GI50 was 63.1 µM (inactive) with SF-268 and 24.3 µM (inactive) with MDA-MB-231.
`NC(CC(O)(c1ccccc1)c1ccccc1)c1ccccc1S` (stereo not given): the GI50 with MDA-N was 15.6 µM (inactive); in the assay with HOP-62, 15.7 µM (inactive); with UACC-62, 15.5 µM (inactive); in the assay on Hs-578T it was 20.3 µM (inactive); in the assay with SF-295, 14.9 µM (inactive); in the assay with T47D it was 16.8 µM (inactive). Also, the GI50 is 15.4 µM (inactive) in the assay with COLO 205; 13.8 µM (inactive) with LOX IMVI; 15.9 µM (inactive) with 786-0; 13 µM (inactive) with CCRF-CEM; 16.6 µM (inactive) in the assay on NCI/ADR-RES; 13.2 µM (inactive) in the assay with HCT-116. The GI50 in the assay with SN12C is 18.8 µM (inactive); in the assay on OVCAR-5 it was 15.9 µM (inactive); in the assay on NCI-H522, 16.6 µM (inactive); in the assay on A549, 14.7 µM (inactive); with K562 it was 16.4 µM (inactive); in the assay on SK-MEL-2, 15.9 µM (inactive). The GI50 in the assay with SF-268 was 9.71 µM (inactive); in the assay on MDA-MB-231, 17.1 µM (inactive).
For `CN1c2ccc(O)c(O)c2-c2cc(O)cc3c2C1CCC3` (stereo not given), the GI50 is 16.9 µM (inactive) in the assay with MDA-N; 14.1 µM (inactive) in the assay with HOP-62; 16.3 µM (inactive) in the assay with UACC-62; 35.2 µM (inactive) with Hs-578T; 57.7 µM (inactive) with SF-295; 15.9 µM (inactive) in the assay with T47D. The GI50 with COLO 205 is 20.7 µM (inactive); in the assay on LOX IMVI, 11.2 µM (inactive); in the assay on 786-0, 15.2 µM (inactive); with CCRF-CEM, 2.58 µM (inactive); with NCI/ADR-RES, 18 µM (inactive); in the assay with HCT-116, 14.6 µM (inactive). The GI50 with SN12C was 17.5 µM (inactive); in the assay with OVCAR-5, 24.5 µM (inactive); in the assay on NCI-H522 it was 4.5 µM (inactive); with A549 it was 29.9 µM (inactive); with K562, 14.4 µM (inactive); in the assay with SK-MEL-2, 24 µM (inactive). Moreover, the GI50 with SF-268 was 14.2 µM (inactive); with MDA-MB-231 it was 23.7 µM (inactive).
